Tested on: Plasmodium falciparum
Test: GSK_TCMDC: Inhibition of Plasmodium falciparum 3D7 in whole erythrocytes, using parasite LDH activity as an index of growth.
Format: functional, organism-based
Conditions: Plasmodium falciparum, 3D7

Compound	XC50 [nM]
CC(C)N(Cc1ccc(-c2ccc(C(F)(F)F)cc2)cc1)C(=O)Cn1c(SCc2cccc(F)c2F)cc(=O)c2cc(CN3CCCCC3)ccc21	872
Cc1cccc2nc(-c3ccc(-c4cccc(NC(=O)COc5ccccc5C(N)=O)c4)s3)[nH]c12	734
O=C1NC(=O)C(c2ccc(Cl)cc2)=C1Nc1cccc(S(=O)(=O)C(F)(F)F)c1	744
CC(=O)Nc1ccc(CN(C)C2CCN(c3cc(NC(=O)c4cccc(C)c4)ccn3)CC2)cc1	904
CCC(CC)NCc1c(O)ccc2c(CNC(CC)CC)c(O)ccc12	390
Cc1cc(-c2nc3ccc(CN4CCN(C)CC4)cc3[nH]2)nn1Cc1cc(Cl)ccc1OCc1ccccc1	1120
OC(CNCc1ccccc1OCc1ccccc1)c1cccc(C(F)(F)F)c1 (centres undefined)	364
COc1ccc(C=NNc2nc(O)cc(-c3ccccc3)n2)cc1OC	595
CCC1(C)N=C(N)N=C(N)N1c1ccc(Cl)cc1 (centres undefined)	159
CCc1cc(Cc2cnc(N)nc2N)cc(CC)c1OC	1130
Cc1cccc(-c2ccc3c(c2)CC(NCc2cccc(-n4ccnc4)c2)C3)c1 (centres undefined)	874
CN(C)Cc1ccc(-c2ccc3c(Nc4ccc(Oc5ccccc5)cc4)ccnc3c2)o1	788
N#Cc1ccc(CN2CCC(Oc3ccc(NC(=O)c4cccs4)cc3)C2)cc1 (centres undefined)	953
Cc1ccc(CCC(C)NCC(O)c2cccc(C(F)(F)F)c2)cc1 (centres undefined)	561
CS(=O)(=O)c1ccc(-c2cnc(N)c(-c3cccc(O)c3)c2)cc1	695
O=C(/C=C/c1ccc(Cl)c(Cl)c1)NCCCCCCN1CCN(C(=O)Nc2ccc(F)c(Cl)c2)CC1	938
O=C(C=Cc1ccc(F)cc1)NC1CCC(CCN2CCc3ccc(-c4cnccn4)cc3CC2)CC1 (centres undefined)	695
Cc1nc(NCCc2c[nH]cn2)cc(NCc2ccccc2)n1	833
CC1(CCCCN2CCC(Cc3ccccc3)CC2)C(=O)Nc2ccccc21 (centres undefined)	855
COc1cc(Cc2cnc(N)nc2N)cc(OCCNC(=O)OCc2ccccc2)c1OC	923
FC(F)(F)c1ccc2c(C=Cc3ccncc3)c[nH]c2c1	707
CNC(=O)c1cnc(Nc2ccc3[nH]c(=O)[nH]c3c2)nc1Nc1cccc(OC(C)C)c1	926
COc1cccc(C2CCN(CCN3CCC(NC(=O)c4ccc(-c5ccc(Cl)cc5)cc4)CC3)CC2)c1	1090
CS(=O)(=O)c1cccc(-c2cnc(N)c3cc(-c4ccc5c(c4)OCO5)ccc23)c1	1040
Nc1cccc(CNCc2ccc(-c3ccc(-c4nc5cc(F)ccc5[nH]4)s3)cc2)c1	992

Compound	XC50 [nM]
OC(Cn1ccnc1)(c1ccc(Cl)cc1Cl)C1CCCCC1 (centres undefined)	984
CCCCCCCCS(=O)(=O)NCCCC1CCN(CCCCCNC(=O)C=Cc2ccc(Cl)c(Cl)c2)CC1	858
COc1ccc2nccc(N/N=C/c3cccc([N+](=O)[O-])c3)c2c1	398
Cn1nccc1C(=O)NCCNCc1ccc(-c2ccc(-c3nc4cc(C(F)(F)F)ccc4[nH]3)cc2)cc1	145
CCOc1cc(Cl)c(C(C)NC(=O)c2cccc(OC)c2)cc1OCC (centres undefined)	956
COc1ccc2nccc([C@@H](O)CN3CCC(NC(=O)Cc4cc5ccccc5s4)CC3)c2c1	906
O=C(Nc1cccc(C(F)(F)F)c1)Nc1ccc2nonc2c1	849
Cc1noc(C)c1CN1Cc2ccccc2OC2(CCN(Cc3c[nH]c4cnccc34)CC2)C1	1070
COc1ccc2nccc(N3CCC(SCCNCc4cc5c(cn4)OCCO5)C3)c2n1 (centres undefined)	768
Nc1ccc(-c2nc3c(ccc4ccccc43)[nH]2)cc1	941
CN(C(=O)c1nn(-c2ccccn2)c2nccc(-c3cccs3)c12)C1CCCCC1	1240
O=c1cc(NCCCNCc2ccc(Cl)c(Cl)c2)[nH]c2cc(Cl)ccc12	925
COc1ccc2nc(C)cc(N/N=C/c3cccc([N+](=O)[O-])c3)c2c1	725
O=C(/C=C/c1cc(C(F)(F)F)ccc1F)NC1CCC(CN2CCC(c3c[nH]c4ccccc34)CC2)CC1 (centres undefined)	818
COc1ccc(C2CC(=O)C3=C(C2)NC(C)=C(C(=O)OC(C)C)C3c2cccc(O)c2)cc1OC (centres undefined)	785
CCCN1CCC(c2c[nH]c3ccc(NC(=O)Nc4cccc(Cl)c4Cl)cc23)CC1	815
COc1ccccc1/C=C/C(=O)N(C)C1CCN(CCCCCNC(=O)/C=C/c2ccc(Cl)c(Cl)c2)CC1	438
CC(C)CNCc1cccc(-c2ccc(CN(C(=O)NCCc3ccccc3)C3CCN(Cc4ccccc4)CC3)cc2)c1	764
COc1ccc2nc(-c3ccc(C(=O)NCCCN4CCN(c5cc(Cl)ccc5OC)CC4)cc3)[nH]c2c1	772
COCCNCc1nc(-c2ccc3c(Nc4ccc(F)c(O)c4)ccnc3c2)cs1	695
CCCN(CCC)CCOC(=O)C(OCC)(c1ccccc1)c1ccccc1	871
O=C1Nc2ccc3ncccc3c2/C1=C/Nc1ccc(N2CCN(CCO)CC2)cc1	1270
O=[N+]([O-])c1cccc(NC(=S)N2CCCN(Cc3ccc(F)cc3F)CC2)c1	831
COc1cc(F)c2nccc([C@@H](O)CN3CCC(NCc4ccc5c(n4)NC(=O)CS5)C(F)C3)c2c1 (some centres undefined)	1170
O=C(/C=C/c1ccc(Cl)c(Cl)c1)NCCCCCN1CCC(c2c[nH]c3ccc(O)cc23)CC1	886

Compound	XC50 [nM]
Clc1ccc(CCNCCCCCCNCCc2ccc3c(c2)OCO3)cc1	1730
COc1cc(N(Cc2ccc(F)cc2)C(=O)c2ccc(-c3ccccc3)cc2)ccc1OCCN1CCCC1	830
O=C(/C=C/c1ccc(Cl)c(Cl)c1)NCCCCCN1CCC(c2c[nH]c3c(-c4ccccc4)cccc23)CC1	246
O=C(Nc1ccc(Cl)cc1)c1ccc(CN2CCCN(Cc3ccccc3)CC2)cc1	753
Cc1ccc(-c2ccn(Cc3cccc(OCc4ccccc4)c3)n2)cn1.Cc1ccc(-c2ccnn2Cc2cccc(OCc3ccccc3)c2)cn1	1180
Cc1cc(C(=O)CN2C(=O)NC3(CCOc4ccccc43)C2=O)c(C)n1Cc1ccco1 (centres undefined)	605
CN1CCN(c2ccnc3ccc(NC(=O)Cc4ccc(OCc5ccccc5)cc4)cc23)CC1	628
C#CCN(Cc1cc2c(=O)[nH]c(N)nc2cc1C)c1ccc(C(=O)N[C@@H](CCC(=O)O)C(=O)O)cc1	625
c1ccc(Oc2ccc(Nc3ccnc4cc(-c5csc(CNCCN6CCOCC6)n5)ccc34)cc2)cc1	708
CC(=O)N(Cc1ccccc1-c1cccc(CNCc2ccc3c(c2)OCO3)c1)C1CCN(Cc2ccccc2)CC1	1050
Cc1[nH]c2cc(Cl)ccc2c1C1=CCN(CCCCC2(C)C(=O)Nc3ccccc32)CC1 (centres undefined)	333
Cc1nc(N)nc(N)c1OCCCOc1cccc(Cl)c1Cl	2.56
CC(Cc1ccc(OCCOc2ccccc2)cc1)NCC(O)c1cccc(Cl)c1 (centres undefined)	1040
COc1cc2s/c(=N\C(=O)c3cccc([N+](=O)[O-])c3)n(C)c2cc1OC	722
Cn1cccc1C(=O)C(=O)Nc1cccc(-c2ccc(-c3nc4cc(C(F)(F)F)ccc4[nH]3)cc2)c1	785
Cc1ccc(C(=O)Nc2ccc(OC3CCN(CCC(C)C)C3)c(Cl)c2)cc1 (centres undefined)	991
Cc1ccc(CC(C)NCC(O)c2cccc(C#N)c2)cc1 (centres undefined)	944
COc1ccc2nccc([C@@H](O)CN3CCC(NC(=O)/C=C/c4cc(F)cc(Br)c4)CC3)c2c1	172
c1ccc(Cn2nnnc2-c2cccc(Nc3ccnc4cc(-c5nccs5)ccc34)c2)cc1	826
CCCCCn1c(Sc2ccc(C#N)c([N+](=O)[O-])c2)nnc1-c1cccc(Cl)c1	768
COc1cccc(Nc2nc(Nc3cccc(C#N)c3)cc(-c3ccncc3)n2)c1	764
O=C(Cc1ccccc1)NC(c1ccccc1)c1ccc2cccnc2c1O (centres undefined)	952
Cc1ccc(NC(=O)NC2CCN(CCC(NC(=O)Cc3ccccc3)c3ccc(Cl)c(Cl)c3)CC2)cc1 (centres undefined)	619
CN(C)CCOc1cc(NC(=O)Nc2ccc(Oc3ccccc3)cc2)ccc1I	890
NC(=O)c1cccc(C(=O)Nc2cccc(-c3cccc(-c4nc5cc(F)ccc5[nH]4)c3)c2)c1	249

Compound	XC50 [nM]
O=C(/C=C/c1ccccc1Cl)NC1CCC(CN2C3CCC2CC(c2c[nH]c4ccccc24)C3)CC1 (centres undefined)	706
CC(C(=O)OCCOCn1cnc2c(=O)[nH]c(N)nc21)N(C)C(=O)OC(C)(C)C (centres undefined)	1000
CCOc1ccc2[nH]c(C)cc(=NN=Cc3ccncc3)c2c1	991
CN1CCC(N(Cc2ccc(N3CCN(Cc4c[nH]c5ccc(Cl)cc45)CC3)nc2)C2CC2)CC1	999
COC(=O)C(C)(C)Cc1c(SC(C)(C)C)c2cc(C(C)C)ccc2n1Cc1ccc(Cl)cc1	849
O=C(NC1CCN(Cc2ccccc2)CC1)c1ccc(-c2nc3cc(Cl)c(Cl)cc3[nH]2)s1	308
CC(Cc1ccc(OCc2ccccc2)cc1)Nc1nc(O)c2ccccc2n1 (centres undefined)	568
Nc1c(Cl)cc(C(O)CNCCCCCOCCc2ccc3occc3c2)cc1Cl (centres undefined)	690
N=c1n(CCN2CCCCC2)c2ccccc2n1CC(O)c1ccc(Cl)c(Cl)c1 (centres undefined)	320
COc1ccc(C2=CCN(c3ccc(Cl)c(Cl)c3)C2=O)cc1OCCN1CCCCC1	784
Cc1cccc(-c2nn(-c3ccccc3)cc2C(=O)Nc2nnc(C)o2)c1	1160
O=C(C=Cc1ccc(Cl)c(Cl)c1)NC1CCN(CCc2ccccc2)CC1	594
CCOC(=O)c1ccc(NC(=O)Nc2cccc(-c3ccc(-c4nc5ccccc5[nH]4)cc3)c2)cc1	212
CCCCOC(C(=O)OCC1CCCN1C)(c1ccccc1)c1ccccc1 (centres undefined)	786
Cc1cc(Nc2nc(Nc3cccc(Cl)c3)nc3ccccc23)n[nH]1	287
COc1ccc(-c2cc(C(=O)N[C@@H](CC3CCCCC3)C(=O)NCCN3CCCCC3)ccc2O)cc1	950
CCCCCC(C)N/C(=N/c1ccccc1Br)Nc1ccc([N+](=O)[O-])cc1O (centres undefined)	615
Cn1c(NC(=O)CCCCCNC(=O)c2ccc(O)c(-c3ccc(Cl)c(Cl)c3)c2)nc2ccccc21	726
CCOC(C(=O)OCC1CCCN1C(C)C)(c1ccccc1)c1ccccc1 (centres undefined)	763
CC(Cc1ccc(S(=O)(=O)N(C(C)C)C(C)C)cc1)NCC(O)c1cccc(C(F)(F)F)c1 (centres undefined)	685
CNCCNCc1ccc(-c2ccc(-c3nc4cccc(C)c4[nH]3)s2)cc1	732
Cc1cccc2nc(-c3cccc(-c4ccc(CNCc5cccc(N)c5)cc4)c3)[nH]c12	260
N=C(N)NN=C1C=Cc2cccc3cccc1c23	609
CN1CCN(CCCN(Cc2cccc(-c3ccc(CNCc4ccc5c(c4)OCO5)cc3)c2)C(=O)Nc2ccccc2)CC1	681
